From patent EP4562003B1, “NOVEL 7-SUBSTITUTED INDOLE SULFONAMIDE DERIVATIVES” (F. Hoffmann-La Roche AG, priority 2022, dated 2024)

Biological target: human GPR17 short isoform (Homo sapiens, UniProt Q13304)
Assay: GPR17 cAMP assay (TR-FRET cAMP quantification, antagonist mode)
Format: cell-based
Details: CHO-K1 cells stably expressing human GPR17 short isoform; EC80 of agonist MDL29,951; forskolin 15µM; IBMX 0.5mM; 30 minutes at room temperature; read-out: hGPR17 cAMP IC50
Protocol: GPR17 cAMP Assay Protocol:
CHO-K1 cells stably expressing vector containing untagged human GPR17 short isoform (Roche) were cultured at 37°C / 5% CO2 in DMEM (Dulbecco's Modified Eagle Medium):F-12 (1:1) supplemented with 10% foetal bovine serum and 400 µg/ml Geneticin.
Changes in intracellular cyclic adenosine monophosphate (cAMP) levels were quantified using the Nano-TRF Detection Assay kit (Roche Diagnostics, Cat. No. 05214386001). This assay allows for direct cAMP quantification in a homogeneous solution. cAMP is detected based on time-resolved fluorescence energy transfer (TR-FRET) and competitive binding of ruthenylated cAMP and endogenous cAMP to an anti-cAMP monoclonal antibody labeled with AlexaFluor-700. The Ruthenium complex serves as the FRET donor and transfers energy to AlexaFluor-700. The FRET signal is inversely proportional to the cAMP concentration.
CHO-GPR17S cells were detached with Accutase and resuspended in assay buffer consisting of Hank's Balanced Salt Solution (HBSS), 10mM HEPES (4-(2-hydroxyethyl) piperazine-1-ethanesulfonic acid solution) and 0.1% bovine serum albumin (pH 7.4). The cells were seeded in black 384-well plates (Corning) at a density of 10'000 cells / 20µl assay buffer until the addition of compounds.
Test antagonist compounds were serially diluted in dimethyl sulfoxide (DMSO) and spotted in 384-well plates. The compounds were then diluted in HBSS buffer supplemented with an EC80 concentration of MDL29,951 (3-(2-Carboxy-4,6-dichloroindol-3-yl)propionic acid) (GPR17 agonist) plus 3-Isobutyl-1-methylxanthine (IBMX) (0.5mM final concentration) and added to the cells at room temperature. Forskolin (15µM final concentration) was added 5 minutes after the test compounds and the cells were incubated at room temperature for 30 minutes. The assay was stopped by adding cAMP detection mix (containing detergents for cell lysis) for 90 minutes at room temperature.
Cellular cAMP was measured using a Paradigm reader (Molecular Devices). The raw data was used to calculate the FRET signal based on the assay's P-factor as per cAMP kit instructions. The data was normalized to the maximal activity of a reference antagonist and dose response curves were fitted to the percent activity of the test compounds using a sigmoidal dose response model (Genedata Screener).
Results in the hGPR17 cAMP assay are provided for compounds of formula I in Table 1 Table 1: […]

human GPR17 short isoform, sequence (Q13304 29-367): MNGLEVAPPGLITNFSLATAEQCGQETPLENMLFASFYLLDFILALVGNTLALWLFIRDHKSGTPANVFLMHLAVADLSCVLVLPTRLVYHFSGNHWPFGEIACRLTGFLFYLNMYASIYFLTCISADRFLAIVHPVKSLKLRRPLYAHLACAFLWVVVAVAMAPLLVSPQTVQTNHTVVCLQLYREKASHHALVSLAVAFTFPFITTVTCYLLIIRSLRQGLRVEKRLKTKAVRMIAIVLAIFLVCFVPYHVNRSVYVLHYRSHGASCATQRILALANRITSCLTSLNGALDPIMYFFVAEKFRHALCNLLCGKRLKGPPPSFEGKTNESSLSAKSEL

IC50 [µM] | Compound
1.42 | COc1nc(NS(=O)(=O)c2c[nH]c3c(-c4ncccn4)cccc23)nc(OC)c1OCC(F)F [Example 72, N-[5-(2,2-difluoroethoxy)-4,6-dimethoxy-pyrimidin-2-yl]-7-(2-pyrimidyl)-1H-indole-3-sulfonamide]
0.037 | COc1nc(NS(=O)(=O)c2c[nH]c3c(-c4nccnc4C)c(Cl)ccc23)nc(OC)c1OCC(F)F [Example 73, 6-chloro-N-[5-(2,2-difluoroethoxy)-4,6-dimethoxy-pyrimidin-2-yl]-7-(3-methylpyrazin-2-yl)-1H-indole-3-sulfonamide]
0.019 | COc1nc(NS(=O)(=O)c2c[nH]c3c(-c4nccnc4C)c(Cl)ccc23)nc(OC)c1CC(F)F [Example 74, 6-chloro-N-[5-(2,2-difluoroethyl)-4,6-dimethoxy-pyrimidin-2-yl]-7-(3-methylpyrazin-2-yl)-1H-indole-3-sulfonamide]
0.135 | COc1nc(NS(=O)(=O)c2c[nH]c3c(-c4ncccn4)c(Cl)ccc23)nc(OC)c1Br [Example 75, N-(5-bromo-4,6-dimethoxy-pyrimidin-2-yl)-6-chloro-7-(2-pyrimidyl)-1H-indole-3-sulfonamide]
0.021 | COc1nc(NS(=O)(=O)c2c[nH]c3c(-c4ccncn4)c(Cl)ccc23)nc(OC)c1CC(F)F [Example 76, 6-chloro-N-[5-(2,2-difluoroethyl)-4,6-dimethoxy-pyrimidin-2-yl]-7-(4-pyrimidyl)-1H-indole-3-sulfonamide]
0.024 | COc1nc(NS(=O)(=O)c2c[nH]c3c(-c4ccncn4)c(Cl)ccc23)nc(OC)c1OCC(F)F [Example 77, 6-chloro-N-[5-(2,2-difluoroethoxy)-4,6-dimethoxy-pyrimidin-2-yl]-7-(4-pyrimidyl)-1H-indole-3-sulfonamide]
0.122 | COc1nc(NS(=O)(=O)c2c[nH]c3c(-c4ncccn4)c(Cl)ccc23)nc(OC)c1OCC#N [Example 78, 6-chloro-N-[5-(cyanomethoxy)-4,6-dimethoxy-pyrimidin-2-yl]-7-(2-pyrimidyl)-1H-indole-3-sulfonamide]
0.059 | COc1nc(NS(=O)(=O)c2c[nH]c3c(-c4ncccn4)c(Cl)ccc23)nc(OC)c1CCC#N [Example 79, 6-chloro-N-[5-(2-cyanoethyl)-4,6-dimethoxy-pyrimidin-2-yl]-7-(2-pyrimidyl)-1H-indole-3-sulfonamide]
0.26 | COc1nc(NS(=O)(=O)c2c[nH]c3c(-c4ncccn4)c(Cl)ccc23)ncc1OCCF [Example 80, 6-chloro-N-[5-(2-fluoroethoxy)-4-methoxy-pyrimidin-2-yl]-7-(2-pyrimidyl)-1H-indole-3-sulfonamide]
0.031 | COc1nc(NS(=O)(=O)c2c[nH]c3c(-c4nccnc4C)c(Cl)ccc23)nc(OC)c1OC(F)F [Example 81, 6-chloro-N-[5-(difluoromethoxy)-4,6-dimethoxy-pyrimidin-2-yl]-7-(3-methylpyrazin-2-yl)-1H-indole-3-sulfonamide]

Further lines, the compound ahead of its results:

Compound | IC50 [µM]
COc1nc(NS(=O)(=O)c2c[nH]c3c(-c4cnccn4)c(C)ccc23)nc(OC)c1OCC(F)F [Example 58, N-[5-(2,2-difluoroethoxy)-4,6-dimethoxy-pyrimidin-2-yl]-6-methyl-7-pyrazin-2-yl-1H-indole-3-sulfonamide] | 0.051
COc1nc(NS(=O)(=O)c2c[nH]c3c(-c4cnccn4)c(C)ccc23)nc(OC)c1OC(F)F [Example 59, N-[5-(difluoromethoxy)-4,6-dimethoxy-pyrimidin-2-yl]-6-methyl-7-pyrazin-2-yl-1H-indole-3-sulfonamide] | 0.068
COc1nc(NS(=O)(=O)c2c[nH]c3c(-c4ncccn4)c(Cl)c(F)cc23)nc(OC)c1OCC(F)F [Example 60, 6-chloro-N-[5-(2,2-difluoroethoxy)-4,6-dimethoxy-pyrimidin-2-yl]-5-fluoro-7-(2-pyrimidyl)-1H-indole-3-sulfonamide] | 0.121
COc1nc(NS(=O)(=O)c2c[nH]c3c(-c4ccn(C)n4)c(Cl)ccc23)nc(OC)c1OCC(F)F [Example 61, 6-chloro-N-[5-(2,2-difluoroethoxy)-4,6-dimethoxy-pyrimidin-2-yl]-7-(1-methylpyrazol-3-yl)-1H-indole-3-sulfonamide] | 0.023
COc1nc(NS(=O)(=O)c2c[nH]c3c(-c4ccnc(C)n4)c(Cl)ccc23)nc(OC)c1OCC(F)F [Example 62, 6-chloro-N-[5-(2,2-difluoroethoxy)-4,6-dimethoxy-pyrimidin-2-yl]-7-(2-methylpyrimidin-4-yl)-1H-indole-3-sulfonamide] | 0.037
COc1nc(NS(=O)(=O)c2c[nH]c3c(-c4ccc(C)nn4)c(Cl)ccc23)nc(OC)c1OCC(F)F [Example 63, 6-chloro-N-[5-(2,2-difluoroethoxy)-4,6-dimethoxy-pyrimidin-2-yl]-7-(6-methylpyridazin-3-yl)-1H-indole-3-sulfonamidemide] | 0.045
COc1nc(NS(=O)(=O)c2c[nH]c3c(-c4nccnc4Cl)c(Cl)ccc23)nc(OC)c1OC(F)F [Example 64, 6-chloro-7-(3-chloropyrazin-2-yl)-N-[5-(difluoromethoxy)-4,6-dimethoxy-pyrimidin-2-yl]-1H-indole-3-sulfonamide] | 0.035
COc1nc(NS(=O)(=O)c2c[nH]c3c(-c4nccnc4Cl)c(Cl)ccc23)nc(OC)c1CC(F)F [Example 65, 6-chloro-7-(3-chloropyrazin-2-yl)-N-[5-(2,2-difluoroethyl)-4,6-dimethoxy-pyrimidin-2-yl]-1H-indole-3-sulfonamide] | 0.039
COc1nc(NS(=O)(=O)c2c[nH]c3c(-c4nccnc4Cl)c(Cl)ccc23)nc(OC)c1OCC(F)F [Example 66, 6-chloro-7-(3-chloropyrazin-2-yl)-N-[5-(2,2-difluoroethoxy)-4,6-dimethoxy-pyrimidin-2-yl]-1H-indole-3-sulfonamide] | 0.055
COc1nc(NS(=O)(=O)c2c[nH]c3c(-c4ccn(C)n4)c(Cl)ccc23)nc(OC)c1OC(F)F [Example 67, 6-chloro-N-[5-(difluoromethoxy)-4,6-dimethoxy-pyrimidin-2-yl]-7-(1-methylpyrazol-3-yl)-1H-indole-3-sulfonamide] | 0.024
COc1nc(NS(=O)(=O)c2c[nH]c3c(-c4ccn(C)n4)c(Cl)ccc23)nc(OC)c1OCCF [Example 68, 6-chloro-N-[5-(2-fluoroethoxy)-4,6-dimethoxy-pyrimidin-2-yl]-7-(1-methylpyrazol-3-yl)-1H-indole-3-sulfonamide] | 0.018
COc1nc(NS(=O)(=O)c2c[nH]c3c(-c4cnn(C)c4)c(Br)ccc23)nc(OC)c1OCC(F)F [Example 69, 6-bromo-N-[5-(2,2-difluoroethoxy)-4,6-dimethoxy-pyrimidin-2-yl]-7-(1-methylpyrazol-4-yl)-1H-indole-3-sulfonamide] | 0.056
COc1nc(NS(=O)(=O)c2c[nH]c3c(-c4ccccc4)c(Cl)ccc23)nc(OC)c1OCC(F)F [Example 70, 6-chloro-N-[5-(2,2-difluoroethoxy)-4,6-dimethoxy-pyrimidin-2-yl]-7-phenyl-1H-indole-3-sulfonamide] | 0.102
COc1nc(NS(=O)(=O)c2c[nH]c3c(-c4ccccc4)c(Cl)ccc23)nc(OC)c1CC(F)F [Example 71, 6-chloro-N-[5-(2,2-difluoroethyl)-4,6-dimethoxy-pyrimidin-2-yl]-7-phenyl-1H-indole-3-sulfonamide] | 0.099
